The format of assay [1] is in vivo, NIH/Swiss mice. Conditions: 80 nmol/Kg; AUC240.
Procedure: Gavage (1.5g/kg) was given at t=0. Sample was taken at t=30 min.
The nature of assay [2]: IVGTT duration of action assay, single SC injection. It is filed as in vivo, rat. As to conditions: compared with 0601GIP3794 (794); @ -120 min.
Procedure: In the typical IVGTT assays the test sample was administered by IV infusion. The IV infusion of sample was initiated at t = -30min and continued through t = 90. IV glucose was given at t = 0. To determine a duration of action using the IVGTT assay, the sample was injected SC as a single injection at one time point indicated (e.g., t = -240, -120, -60 or -30) prior to administration of glucose. IV glucose was given at t = 0.
The format of assay [3] is in vivo, rats. On the set-up: AUC Change in Insulin Pre IVGTT / AUC Change in Insulin Post IVGTT: unit not given beside the values.
Setting [4] is: 100 pmol/kg/min infusion dose in rats.

For the compound `CC[C@H](C)[C@H](NC(=O)[C@H](CO)NC(=O)[C@H](Cc1ccc(O)cc1)NC(=O)[C@H](CC(=O)O)NC(=O)[C@H](CO)NC(=O)[C@@H](NC(=O)[C@H](Cc1ccccc1)NC(=O)[C@@H](NC(=O)CNC(=O)[C@H](CCC(=O)O)NC(=O)[C@@H](C)NC(=O)[C@@H](N)Cc1ccc(O)cc1)[C@@H](C)O)[C@@H](C)CC)C(=O)N[C@@H](C)C(=O)N[C@@H](CC(C)C)C(=O)N[C@@H](CC(=O)O)C(=O)N[C@@H](CCCCN)C(=O)N[C@H](C(=O)N[C@@H](Cc1c[nH]cn1)C(=O)N[C@@H](CCC(N)=O)C(=O)N[C@@H](CCC(N)=O)C(=O)N[C@@H](CC(=O)O)C(=O)N[C@@H](Cc1ccccc1)C(=O)N[C@H](C(=O)N[C@@H](CC(N)=O)C(=O)N[C@@H](Cc1c[nH]c2ccccc12)C(=O)N[C@@H](CC(C)C)C(=O)N[C@@H](CC(C)C)C(=O)N[C@@H](C)C(=O)N[C@@H](CCC(N)=O)C(=O)N[C@@H](CCCCN)C(=O)N1CCC[C@H]1C(=O)N[C@@H](CCCCN)C(=O)N[C@@H](CCCCN)C(=O)N[C@H](C(=O)N[C@@H](CCCNC(=N)N)C(=O)N[C@@H](Cc1ccc(O)cc1)C(=O)N[C@@H](CO)C(N)=O)[C@@H](C)CC)C(C)C)[C@@H](C)CC` [0601 GIP48 07], the “Basal Glucose Lowering at 80 nmol/Kg” value in assay [1] is -26%, AUC240. The “Duration In The Rat IVGTT Assay” value in assay [2] is given as < 794 @-120 min.

With `CC[C@H](C)[C@H](NC(=O)[C@H](CO)NC(=O)[C@H](Cc1ccc(O)cc1)NC(=O)[C@H](CC(=O)O)NC(=O)[C@H](CO)NC(=O)[C@@H](NC(=O)[C@H](Cc1ccccc1)NC(=O)[C@@H](NC(=O)CNC(=O)[C@H](CCC(=O)O)NC(=O)[C@@H](C)NC(=O)[C@@H](N)Cc1ccc(O)cc1)[C@@H](C)O)[C@@H](C)CC)C(=O)N[C@@H](C)C(=O)N[C@@H](CCSC)C(=O)N[C@@H](CC(=O)O)C(=O)N[C@@H](CCCCN)C(=O)N[C@H](C(=O)N[C@@H](Cc1c[nH]cn1)C(=O)N[C@@H](CCC(N)=O)C(=O)N[C@@H](CCC(N)=O)C(=O)N[C@@H](CC(=O)O)C(=O)N[C@@H](Cc1ccccc1)C(=O)N[C@H](C(=O)N[C@@H](CC(N)=O)C(=O)N[C@@H](Cc1c[nH]c2ccccc12)C(=O)N[C@@H](CC(C)C)C(=O)N[C@@H](CC(C)C)C(=O)N[C@@H](C)C(=O)N[C@@H](CCC(N)=O)C(=O)N[C@@H](CCCCN)C(=O)N1CCC[C@H]1C(=O)N[C@@H](CCCCN)C(=O)N[C@@H](CO)C(=O)N[C@@H](C)C(=O)N[C@@H](CCCNC(=N)N)C(=O)N1CCC[C@H]1C(=O)N[C@@H](CO)C(N)=O)C(C)C)[C@@H](C)CC` [0601 GIP48 21], the “Basal Glucose Lowering at 80 nmol/Kg” value in assay [1] was -5%, AUC240. For the same compound, the “Duration In The Rat IVGTT Assay” value in assay [2] is given as <794@-120 min.

Regarding `CC[C@H](C)[C@H](NC(=O)[C@H](CO)NC(=O)[C@H](Cc1ccc(O)cc1)NC(=O)[C@H](CC(=O)O)NC(=O)[C@H](CO)NC(=O)[C@@H](NC(=O)[C@H](Cc1ccccc1)NC(=O)[C@@H](NC(=O)CNC(=O)[C@H](CCC(=O)O)NC(=O)[C@@H](C)NC(=O)[C@@H](N)Cc1ccc(O)cc1)[C@@H](C)O)[C@@H](C)CC)C(=O)N[C@@H](C)C(=O)N[C@@H](CCSC)C(=O)N[C@@H](CC(=O)O)C(=O)N[C@@H](CCCCN)C(=O)N[C@H](C(=O)N[C@@H](Cc1c[nH]cn1)C(=O)N[C@@H](CCC(N)=O)C(=O)N[C@@H](CCC(N)=O)C(=O)N[C@@H](CC(=O)O)C(=O)N[C@@H](Cc1ccccc1)C(=O)N[C@H](C(=O)N[C@@H](CC(N)=O)C(=O)N[C@@H](Cc1c[nH]c2ccccc12)C(=O)N[C@@H](CC(C)C)C(=O)N[C@@H](CC(C)C)C(=O)N[C@@H](C)C(=O)N[C@@H](CCC(N)=O)C(=O)N[C@@H](CCCCN)C(=O)N1CCC[C@H]1C(=O)N[C@@H](CCCCN)C(=O)N[C@@H](CCC(N)=O)C(=O)N[C@H](C(=O)N[C@@H](CCCNC(=N)N)C(=O)N[C@@H](Cc1ccc(O)cc1)C(=O)N[C@@H](CO)C(N)=O)[C@@H](C)CC)C(C)C)[C@@H](C)CC` [0601 GIP48 54], the “Duration In The Rat IVGTT Assay” value in assay [2] is reported as < 794@ -120 min.

As to `CC[C@H](C)[C@H](NC(=O)[C@H](CO)NC(=O)[C@H](Cc1ccc(O)cc1)NC(=O)[C@H](CC(=O)O)NC(=O)[C@H](CO)NC(=O)[C@@H](NC(=O)[C@H](Cc1ccccc1)NC(=O)[C@@H](NC(=O)CNC(=O)[C@H](CCC(=O)O)NC(=O)[C@@H](C)NC(=O)[C@@H](N)Cc1ccc(O)cc1)[C@@H](C)O)[C@@H](C)CC)C(=O)N[C@@H](C)C(=O)N[C@@H](CCSC)C(=O)N[C@@H](CC(=O)O)C(=O)N[C@@H](CCCCN)C(=O)N[C@H](C(=O)N[C@@H](Cc1c[nH]cn1)C(=O)N[C@@H](CCC(N)=O)C(=O)N[C@@H](CCC(N)=O)C(=O)N[C@@H](CC(=O)O)C(=O)N[C@@H](Cc1ccccc1)C(=O)N[C@H](C(=O)N[C@@H](CC(N)=O)C(=O)N[C@@H](Cc1c[nH]c2ccccc12)C(=O)N[C@@H](CC(C)C)C(=O)N[C@@H](CC(C)C)C(=O)N[C@@H](C)C(=O)N[C@@H](CCC(N)=O)C(=O)N[C@@H](CCCCN)C(=O)N1CCC[C@H]1C(=O)N[C@@H](CCCCN)C(=O)N[C@@H](CCCCN)C(=O)N[C@@H](C)C(=O)N[C@@H](CCCNC(=N)N)C(=O)N[C@@H](Cc1ccc(O)cc1)C(=O)N[C@@H](CO)C(N)=O)C(C)C)[C@@H](C)CC` [0601 GIP48 56], in assay [1], the “Basal Glucose Lowering at 80 nmol/Kg” value is given as -3%, AUC240. The “Duration In The Rat IVGTT Assay” value in assay [2] is <794@-120 min.

For the compound `CC[C@H](C)[C@H](NC(=O)[C@H](CO)NC(=O)[C@H](Cc1ccc(O)cc1)NC(=O)[C@H](CC(=O)O)NC(=O)[C@H](CO)NC(=O)[C@@H](NC(=O)[C@H](Cc1ccccc1)NC(=O)[C@@H](NC(=O)CNC(=O)[C@H](CCC(=O)O)NC(=O)[C@@H](C)NC(=O)[C@@H](N)Cc1ccc(O)cc1)[C@@H](C)O)[C@@H](C)CC)C(=O)N[C@@H](C)C(=O)N[C@@H](CCSC)C(=O)N[C@@H](CC(=O)O)C(=O)N[C@@H](CCCCN)C(=O)N[C@H](C(=O)N[C@@H](Cc1c[nH]cn1)C(=O)N[C@@H](CCC(N)=O)C(=O)N[C@@H](CCC(N)=O)C(=O)N[C@@H](CC(=O)O)C(=O)N[C@@H](Cc1ccccc1)C(=O)N[C@H](C(=O)N[C@@H](CC(N)=O)C(=O)N[C@@H](Cc1c[nH]c2ccccc12)C(=O)N[C@@H](CC(C)C)C(=O)N[C@@H](CC(C)C)C(=O)N[C@@H](C)C(=O)N[C@@H](CCC(N)=O)C(=O)N[C@@H](CCCCN)C(=O)N1CCC[C@H]1C(=O)N[C@@H](CO)C(=O)N1CCC[C@H]1C(=O)N[C@@H](CCCCN)C(=O)N[C@@H](CCCCN)C(=O)N[C@H](C(=O)N[C@@H](CCCNC(=N)N)C(=O)N[C@@H](Cc1ccc(O)cc1)C(=O)N[C@@H](CO)C(N)=O)[C@@H](C)CC)C(C)C)[C@@H](C)CC` [0601 GIP48 23], the “Basal Glucose Lowering at 80 nmol/Kg” value in assay [1] is on record as -23%, AUC2240. The “Duration In The Rat IVGTT Assay” value in assay [2] is reported as <794@-120 min.

Regarding `CC[C@H](C)[C@H](NC(=O)[C@H](CCCCN)NC(=O)[C@H](CC(=O)O)NC(=O)[C@H](CC(C)C)NC(=O)[C@H](C)NC(=O)[C@@H](NC(=O)[C@H](CO)NC(=O)[C@H](Cc1ccc(O)cc1)NC(=O)[C@H](CC(=O)O)NC(=O)[C@H](CO)NC(=O)[C@@H](NC(=O)[C@H](Cc1ccccc1)NC(=O)[C@@H](NC(=O)CNC(=O)[C@H](CCC(=O)O)NC(=O)[C@@H](C)NC(=O)[C@H](Cc1ccc(O)cc1)NC(=O)[C@@H](N)CC(C)C)[C@@H](C)O)[C@@H](C)CC)[C@@H](C)CC)C(=O)N[C@@H](C)C(=O)N[C@@H](CCC(N)=O)C(=O)N[C@@H](CCC(N)=O)C(=O)N[C@@H](CCC(=O)O)C(=O)N[C@@H](Cc1ccccc1)C(=O)N[C@H](C(=O)N[C@@H](CC(N)=O)C(=O)N[C@@H](Cc1c[nH]c2ccccc12)C(=O)N[C@@H](CC(C)C)C(=O)N[C@@H](CC(C)C)C(=O)N[C@@H](C)C(=O)N[C@@H](CCC(N)=O)C(=O)N[C@@H](CCCCN)C(=O)N1CCC[C@H]1C(=O)N[C@@H](CCCCN)C(=O)N[C@@H](CCCCN)C(=O)N[C@H](C(=O)N[C@@H](CCCNC(=N)N)C(=O)N[C@@H](Cc1ccc(O)cc1)C(=O)N[C@@H](CO)C(N)=O)[C@@H](C)CC)C(C)C` [0601 GIP48 02], in assay [1], the “Basal Glucose Lowering at 80 nmol/Kg” value is -15%, AUC240. For the same compound, the “Duration In The Rat IVGTT Assay” value in assay [2] was < 794 @ -120 min.

Take “octylglycine-GIP(1-30)-Exendin-4-(31-39) [Compound 0601GIP4178]”: in assay [1], the “Basal Glucose Lowering at 80 nmol/Kg” value is given as -13%, AUC240. Moreover, in assay [3] (setting [4]), the “insulin levels prior to the glucose challenge” value is reported as “significant rise in insulin levels” and the “insulinotropic response to an intravenous glucose challenge” value is “diminished insulinotropic response”. Moreover, in assay [3] (rat, in vivo), the “AUC Change in Insulin Post IVGTT” value is given as 106.6+-23.8 and the “AUC Change in Insulin Pre IVGTT” value is 18.5+-6.7.

Consider `CC[C@H](C)[C@H](NC(=O)[C@H](C)NC(=O)[C@H](CCCCN)NC(=O)[C@@H]1CCCN1C(=O)[C@H](CCCCN)NC(=O)[C@H](CCC(N)=O)NC(=O)[C@H](C)NC(=O)[C@H](CC(C)C)NC(=O)[C@H](CC(C)C)NC(=O)[C@H](Cc1c[nH]c2ccccc12)NC(=O)[C@H](CC(N)=O)NC(=O)[C@@H](NC(=O)[C@H](Cc1ccccc1)NC(=O)[C@H](CC(=O)O)NC(=O)[C@H](CCC(N)=O)NC(=O)[C@H](CCC(N)=O)NC(=O)[C@H](Cc1c[nH]cn1)NC(=O)[C@@H](NC(=O)[C@H](CCCCN)NC(=O)[C@H](CC(=O)O)NC(=O)[C@H](CCSC)NC(=O)[C@H](C)NC(=O)[C@@H](NC(=O)[C@H](CO)NC(=O)[C@H](Cc1ccc(O)cc1)NC(=O)[C@H](CC(=O)O)NC(=O)[C@H](CO)NC(=O)[C@@H](NC(=O)[C@H](Cc1ccccc1)NC(=O)[C@@H](NC(=O)CNC(=O)[C@H](CCC(=O)O)NC(=O)[C@@H](C)NC(=O)[C@@H](N)Cc1ccc(O)cc1)[C@@H](C)O)[C@@H](C)CC)[C@@H](C)CC)[C@@H](C)CC)C(C)C)C(=O)N[C@@H](CCCNC(=N)N)C(=O)N[C@@H](Cc1ccc(O)cc1)C(=O)N[C@@H](CO)C(N)=O` [0601 GIP48 16], for which the “Basal Glucose Lowering at 80 nmol/Kg” value in assay [1] was -9%, AUC240. The “Duration In The Rat IVGTT Assay” value in assay [2] is <794@-120 min.
